Values after ≈ are worked out from the molar mass of the structure shown.
Columns and labels:
Histamine H1 receptor [1] = target: T1, Histamine H1 receptor (Homo sapiens, UniProt P35367); assay: Displacement of [3H]pyrilamine from human histamine H1 receptor expressed in HEK-293 cells at 1 uM; assay type: cell-based; details: HEK293
[2] = target: T2, 5-hydroxytryptamine receptor 7 (Homo sapiens, UniProt P34969); assay: biochemical
[3] = target: 5-hydroxytryptamine receptor 1A (Homo sapiens) (UniProt P08908); details: HEK293, 1 uM
[4] = target: Voltage-gated inwardly rectifying potassium channel KCNH2 (Homo sapiens, UniProt Q12809)
[5] = Metabolic stability in human liver microsomes assessed as compound remaining after 60 mins at 1 x 10^-7 M (reference value: 100%); assay type: ADME; details: read-out: Stability
[6] = target: Alpha-2C adrenergic receptor (Homo sapiens) (UniProt P18825); assay: Displacement of [3H]RX-821002 from human adrenergic alpha2C receptor expressed in CHO cells at 1 uM; assay type: cell-based
Rattus norvegicus [7] = assay: Procognitive effect in intraperitoneally dosed 3-months old Wistar rat assessed as extinction of non-reinforced responding for sweet reward; assay type: functional; details: ip, read-out: MED
D(2) dopamine receptor [8] = target: T3, D(2) dopamine receptor (Homo sapiens, UniProt P14416); assay: Agonist activity at human recombinant dopmaine D2L receptor expressed in CHOK1 cells assessed as intracellular Ca2+ levels by aequorin based radiometric and luminescence plate counting method; assay type: functional, cell-based, CHO-K1
T3 sequence (P14416 whole entry): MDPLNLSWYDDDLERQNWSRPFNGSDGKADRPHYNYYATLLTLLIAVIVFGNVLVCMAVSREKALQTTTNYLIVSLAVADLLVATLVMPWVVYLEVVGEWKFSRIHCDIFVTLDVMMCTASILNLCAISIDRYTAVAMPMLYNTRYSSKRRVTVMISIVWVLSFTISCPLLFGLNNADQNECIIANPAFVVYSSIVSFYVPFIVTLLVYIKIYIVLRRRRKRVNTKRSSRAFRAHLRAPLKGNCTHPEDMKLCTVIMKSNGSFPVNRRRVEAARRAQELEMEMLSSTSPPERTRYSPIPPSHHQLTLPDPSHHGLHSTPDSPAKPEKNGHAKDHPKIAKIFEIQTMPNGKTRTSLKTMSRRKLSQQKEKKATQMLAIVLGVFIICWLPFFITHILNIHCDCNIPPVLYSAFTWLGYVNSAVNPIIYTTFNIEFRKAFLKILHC

[9] = target: T4, 5-hydroxytryptamine receptor 2A (Homo sapiens, UniProt P28223); assay: Displacement of [3H]ketanserin from human 5-HT2A receptor expressed in HEK-293 cells; assay type: cell-based, HEK293
T4 sequence (P28223 whole entry): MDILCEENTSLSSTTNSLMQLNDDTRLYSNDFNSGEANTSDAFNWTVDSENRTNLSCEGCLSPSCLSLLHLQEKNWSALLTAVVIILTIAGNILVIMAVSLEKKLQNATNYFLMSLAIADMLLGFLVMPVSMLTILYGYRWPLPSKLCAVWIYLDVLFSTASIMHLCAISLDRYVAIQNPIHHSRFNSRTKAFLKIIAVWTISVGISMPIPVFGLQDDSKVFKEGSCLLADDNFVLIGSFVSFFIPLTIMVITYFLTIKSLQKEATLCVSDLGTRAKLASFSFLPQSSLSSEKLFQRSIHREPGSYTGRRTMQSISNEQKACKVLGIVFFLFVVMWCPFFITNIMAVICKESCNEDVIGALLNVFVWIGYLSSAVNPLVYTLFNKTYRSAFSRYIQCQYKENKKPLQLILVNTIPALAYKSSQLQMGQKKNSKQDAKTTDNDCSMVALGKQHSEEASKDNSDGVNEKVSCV

[10] = target: D(4) dopamine receptor (Homo sapiens) (UniProt P21917); assay: Displacement of [3H]methylspiperone from human dopamine D4 receptor expressed in CHO cells at 1 uM; assay type: cell-based
[11] = target: T2, 5-hydroxytryptamine receptor 7; assay: Displacement of [3H]LSD from human 5-HT7 receptor expressed in CHO cells at 1 uM; assay type: cell-based
[12] = Aqueous solubility in simulated intestinal fluid at 2 x 10^-4 M; assay type: physicochemical
[13] = Intrinsic clearance in human liver microsomes at 1 x 10^-7 M; assay type: ADME; details: read-out: CLH
Rattus norvegicus [14] = assay: Anti-depressant-like activity in intraperitoneally dosed >18-months old Wistar rat by Porsolt's forced swim test; assay type: functional; details: ip, read-out: MED
[15] = Aqueous solubility in PBS buffer at pH 7.4 at 2 x 10^-4 M; assay type: physicochemical
Rattus norvegicus [16] = assay: Induction of reinforcement of lever pressing in intraperitoneally dosed Wistar rat in absence of sweet reward; assay type: organism-based; details: in vivo, ip
[17] = Aqueous solubility in simulated gastric fluid at 2 x 10^-4 M; assay type: physicochemical
D(1A) dopamine receptor = D(1A) dopamine receptor (Homo sapiens, UniProt P21728); assay: biochemical
D(1A) dopamine receptor, sequence (P21728 whole entry): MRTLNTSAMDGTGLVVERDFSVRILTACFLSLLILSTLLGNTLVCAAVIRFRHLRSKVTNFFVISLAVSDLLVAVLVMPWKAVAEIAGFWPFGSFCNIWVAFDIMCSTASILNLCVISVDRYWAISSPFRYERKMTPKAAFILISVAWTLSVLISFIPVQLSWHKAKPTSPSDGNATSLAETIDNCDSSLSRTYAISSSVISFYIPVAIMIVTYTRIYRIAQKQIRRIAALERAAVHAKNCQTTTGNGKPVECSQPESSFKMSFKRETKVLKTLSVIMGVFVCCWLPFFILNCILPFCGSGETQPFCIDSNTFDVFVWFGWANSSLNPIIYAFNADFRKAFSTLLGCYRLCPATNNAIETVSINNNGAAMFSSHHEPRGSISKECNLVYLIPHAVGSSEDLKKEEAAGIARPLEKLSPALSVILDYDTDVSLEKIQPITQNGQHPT

[18] = Metabolic stability in human liver microsomes assessed as compound remaining after 30 mins at 1 x 10^-7 M (reference value: 100%); assay type: ADME; details: read-out: Stability
D(3) dopamine receptor [19] = target: T5, D(3) dopamine receptor (Homo sapiens, UniProt P35462); details: CHO, 1 uM
T5 sequence (P35462 whole entry): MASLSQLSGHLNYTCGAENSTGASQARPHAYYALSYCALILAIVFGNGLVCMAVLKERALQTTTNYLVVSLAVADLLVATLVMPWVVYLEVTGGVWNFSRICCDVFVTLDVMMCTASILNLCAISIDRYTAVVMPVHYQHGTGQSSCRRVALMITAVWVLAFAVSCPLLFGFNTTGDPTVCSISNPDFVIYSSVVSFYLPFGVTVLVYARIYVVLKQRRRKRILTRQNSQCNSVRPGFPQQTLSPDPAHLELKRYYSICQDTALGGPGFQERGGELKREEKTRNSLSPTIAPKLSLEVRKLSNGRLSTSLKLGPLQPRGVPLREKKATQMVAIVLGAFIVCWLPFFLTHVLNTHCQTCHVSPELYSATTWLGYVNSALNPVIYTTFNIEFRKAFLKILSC

D(4) dopamine receptor = D(4) dopamine receptor (Homo sapiens, UniProt P21917); assay: Displacement of [3H]methylspiperone from human dopamine D4 receptor expressed in CHO cells; assay type: cell-based
[20] = target: T6, Sodium-dependent serotonin transporter (Homo sapiens, UniProt P31645); assay: Displacement of [3H]imipramine from human SERT expressed in CHO cells at 1 uM; assay type: cell-based
Target sequence in this assay (P31645 whole entry, looked up): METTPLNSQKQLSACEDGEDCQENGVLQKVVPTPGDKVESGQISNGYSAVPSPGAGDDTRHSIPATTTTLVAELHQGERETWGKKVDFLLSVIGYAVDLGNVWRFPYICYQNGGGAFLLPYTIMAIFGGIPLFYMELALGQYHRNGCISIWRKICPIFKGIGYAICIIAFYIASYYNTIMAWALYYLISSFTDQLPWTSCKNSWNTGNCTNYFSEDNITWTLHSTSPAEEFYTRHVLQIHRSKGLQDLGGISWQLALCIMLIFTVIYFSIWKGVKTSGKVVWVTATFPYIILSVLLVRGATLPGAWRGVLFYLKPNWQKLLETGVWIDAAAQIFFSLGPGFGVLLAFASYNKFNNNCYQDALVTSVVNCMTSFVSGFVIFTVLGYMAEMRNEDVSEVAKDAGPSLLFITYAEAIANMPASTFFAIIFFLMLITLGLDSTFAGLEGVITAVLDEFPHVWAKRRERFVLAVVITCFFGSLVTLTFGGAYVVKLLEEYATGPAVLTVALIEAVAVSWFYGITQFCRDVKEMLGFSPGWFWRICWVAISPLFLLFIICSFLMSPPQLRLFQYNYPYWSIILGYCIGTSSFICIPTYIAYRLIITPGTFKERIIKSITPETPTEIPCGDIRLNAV

[21] = target: Muscarinic acetylcholine receptor M1 (Homo sapiens, UniProt P11229); assay: biochemical; assay type: cell-based, CHO
[22] = Permeability across basolateral to apical side in human Caco2 cells at 1 x 10^-5 M; assay type: ADME, cell-based; details: Caco-2, read-out: permeability
[23] = target: T7, 5-hydroxytryptamine receptor 6 (Homo sapiens, UniProt P50406); assay: Antagonist activity against human recombinant 5-HT6 receptor expressed in CHOK1 cells assessed as reduction in serotonin-induced increase in intracellular Ca2+ levels by aequorin based radiometric and luminescence plate counting method; assay type: functional, cell-based; details: CHO-K1
T7 sequence (P50406 whole entry): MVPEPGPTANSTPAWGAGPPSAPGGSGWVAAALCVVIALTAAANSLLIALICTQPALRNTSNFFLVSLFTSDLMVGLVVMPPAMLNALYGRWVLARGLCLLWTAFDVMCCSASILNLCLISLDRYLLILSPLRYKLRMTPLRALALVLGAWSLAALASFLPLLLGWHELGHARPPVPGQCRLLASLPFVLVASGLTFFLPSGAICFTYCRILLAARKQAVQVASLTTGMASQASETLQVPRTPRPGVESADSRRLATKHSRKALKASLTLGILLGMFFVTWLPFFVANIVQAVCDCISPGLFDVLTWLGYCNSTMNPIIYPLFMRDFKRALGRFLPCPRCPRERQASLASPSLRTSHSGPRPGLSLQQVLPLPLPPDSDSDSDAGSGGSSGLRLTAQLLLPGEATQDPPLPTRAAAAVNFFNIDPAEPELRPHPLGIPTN

[24] = Half life in human liver microsomes at 1 x 10^-7 M; assay type: ADME
D(3) dopamine receptor [25] = target: T5, D(3) dopamine receptor; assay: Agonist activity at human recombinant dopmaine D3 receptor expressed in CHOK1 cells assessed as effect on cAMP levels; assay type: functional, cell-based, CHO-K1
Histamine H1 receptor [26] = target: T1, Histamine H1 receptor; assay: biochemical; assay type: cell-based, HEK293
[27] = target: Alpha-2C adrenergic receptor (Homo sapiens, UniProt P18825); assay: biochemical
Rattus norvegicus [28] = assay: Anti-depressant-like activity in intraperitoneally dosed 3-months old Wistar rat by Porsolt's forced swim test; assay type: functional; details: ip, read-out: MED
[29] = target: T7, 5-hydroxytryptamine receptor 6; assay: biochemical
[30] = Permeability across apical to basolateral side in human Caco2 cells at 1 x 10^-5 M; assay type: ADME, cell-based; details: Caco-2, read-out: permeability
D(2) dopamine receptor [31] = target: T3, D(2) dopamine receptor; assay: biochemical
Rattus norvegicus [32] = assay: Anxiolytic activity in intraperitoneally dosed 3-months old Wistar rat by open-field test; assay type: functional; details: ip, read-out: MED
[33] = target: 5-hydroxytryptamine receptor 2C (Homo sapiens, UniProt P28335); assay: biochemical
Rattus norvegicus [34] = assay: Anti-depressant-like activity in intraperitoneally dosed 3-months old Wistar rat assessed as increase in saccharin self-administration; assay type: functional; details: ip, read-out: MED
[35] = target: T6, Sodium-dependent serotonin transporter; assay: biochemical
Target sequence in this assay (P31645 whole entry): as the sequence (P31645 whole entry, looked up) above

[36] = Protein binding in human plasma 1 x 10^-5 M; assay type: ADME, cell-free; details: read-out: PPB
[37] = Metabolic stability in human liver microsomes assessed as compound remaining after 45 mins at 1 x 10^-7 M (reference value: 100%); assay type: ADME; details: read-out: Stability
Rattus norvegicus [38] = assay: Anxiolytic activity in intraperitoneally dosed 3-months old Wistar rat by Vogel's conflict drinking test; assay type: functional; details: ip, read-out: MED
Rattus norvegicus [39] = assay: Anxiolytic activity in intraperitoneally dosed >18-months old Wistar rat by open-field test; assay type: functional; details: ip, read-out: MED
D(3) dopamine receptor [40] = target: T5, D(3) dopamine receptor; assay: Displacement of [3H]methylspiperone from human dopamine D3 receptor expressed in CHO cells; assay type: cell-based
D(2) dopamine receptor [41] = target: T3, D(2) dopamine receptor; assay: biochemical; remark: listed apart in the source
[42] = target: 5-hydroxytryptamine receptor 2C (Homo sapiens) (UniProt P28335); assay: Displacement of [3H]mesulergine from human 5-HT2C receptor expressed in HEK-293 cells at 1 uM; assay type: cell-based; details: HEK293
[43] = target: T4, 5-hydroxytryptamine receptor 2A; details: HEK293, 1 uM
[44] = Metabolic stability in human liver microsomes assessed as compound remaining after 15 mins at 1 x 10^-7 M (reference value: 100%); assay type: ADME; details: read-out: Stability
[45] = target: Alpha-1A adrenergic receptor (Homo sapiens) (UniProt P35348); details: CHO, 1 uM
Alpha-1A adrenergic receptor (Homo sapiens), sequence (P35348 whole entry): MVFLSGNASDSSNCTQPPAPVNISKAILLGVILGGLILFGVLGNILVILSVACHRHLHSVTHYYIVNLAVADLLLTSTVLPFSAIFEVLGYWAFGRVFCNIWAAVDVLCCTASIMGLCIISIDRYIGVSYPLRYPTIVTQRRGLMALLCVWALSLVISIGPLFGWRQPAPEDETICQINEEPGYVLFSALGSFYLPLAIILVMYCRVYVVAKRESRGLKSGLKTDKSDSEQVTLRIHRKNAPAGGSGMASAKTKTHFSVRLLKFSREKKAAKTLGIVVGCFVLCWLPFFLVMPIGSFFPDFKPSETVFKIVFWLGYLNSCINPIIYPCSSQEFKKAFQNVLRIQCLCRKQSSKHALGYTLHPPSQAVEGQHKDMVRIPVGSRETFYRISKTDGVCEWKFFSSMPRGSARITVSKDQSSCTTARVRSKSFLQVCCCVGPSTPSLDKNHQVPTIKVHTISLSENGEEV

[46] = target: 5-hydroxytryptamine receptor 1A (Homo sapiens, UniProt P08908); assay: biochemical
[47] = target: T8, Muscarinic acetylcholine receptor M1 (Homo sapiens) (UniProt P11229); assay: Displacement of [3H]pirenzepine from human muscarinic M1 receptor expressed in CHO cells at 1 uM; assay type: cell-based
T8 sequence (whole entry): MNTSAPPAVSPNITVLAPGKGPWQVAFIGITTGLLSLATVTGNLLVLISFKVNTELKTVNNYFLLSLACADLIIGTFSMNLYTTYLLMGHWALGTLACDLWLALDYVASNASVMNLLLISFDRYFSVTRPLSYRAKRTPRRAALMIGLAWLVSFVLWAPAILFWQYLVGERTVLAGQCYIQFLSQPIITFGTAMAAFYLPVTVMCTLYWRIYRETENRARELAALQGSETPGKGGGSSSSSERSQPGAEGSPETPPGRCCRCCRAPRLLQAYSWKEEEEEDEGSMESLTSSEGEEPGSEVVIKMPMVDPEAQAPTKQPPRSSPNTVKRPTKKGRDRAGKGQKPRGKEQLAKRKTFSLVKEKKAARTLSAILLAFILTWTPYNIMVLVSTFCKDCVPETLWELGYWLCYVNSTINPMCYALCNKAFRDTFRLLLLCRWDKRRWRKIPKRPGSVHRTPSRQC

[48] = target: Alpha-1A adrenergic receptor (Homo sapiens, UniProt P35348); assay: biochemical
Alpha-1A adrenergic receptor, sequence (P35348 whole entry): as the sequence (P35348 whole entry) above

T1 sequence (P35367 whole entry): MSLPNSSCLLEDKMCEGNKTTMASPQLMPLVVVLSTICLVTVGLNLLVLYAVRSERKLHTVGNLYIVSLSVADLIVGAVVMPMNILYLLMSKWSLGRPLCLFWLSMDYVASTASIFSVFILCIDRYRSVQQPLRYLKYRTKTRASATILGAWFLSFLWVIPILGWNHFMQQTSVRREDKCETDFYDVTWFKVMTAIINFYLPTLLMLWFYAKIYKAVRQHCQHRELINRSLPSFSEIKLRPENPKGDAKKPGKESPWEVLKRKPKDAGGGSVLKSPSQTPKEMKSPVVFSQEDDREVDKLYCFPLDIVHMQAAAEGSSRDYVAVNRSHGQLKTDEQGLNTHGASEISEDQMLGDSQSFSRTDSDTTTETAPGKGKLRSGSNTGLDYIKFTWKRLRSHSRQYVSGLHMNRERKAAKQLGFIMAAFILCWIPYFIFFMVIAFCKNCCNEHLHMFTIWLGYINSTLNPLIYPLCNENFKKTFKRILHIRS
T2 sequence (P34969 whole entry): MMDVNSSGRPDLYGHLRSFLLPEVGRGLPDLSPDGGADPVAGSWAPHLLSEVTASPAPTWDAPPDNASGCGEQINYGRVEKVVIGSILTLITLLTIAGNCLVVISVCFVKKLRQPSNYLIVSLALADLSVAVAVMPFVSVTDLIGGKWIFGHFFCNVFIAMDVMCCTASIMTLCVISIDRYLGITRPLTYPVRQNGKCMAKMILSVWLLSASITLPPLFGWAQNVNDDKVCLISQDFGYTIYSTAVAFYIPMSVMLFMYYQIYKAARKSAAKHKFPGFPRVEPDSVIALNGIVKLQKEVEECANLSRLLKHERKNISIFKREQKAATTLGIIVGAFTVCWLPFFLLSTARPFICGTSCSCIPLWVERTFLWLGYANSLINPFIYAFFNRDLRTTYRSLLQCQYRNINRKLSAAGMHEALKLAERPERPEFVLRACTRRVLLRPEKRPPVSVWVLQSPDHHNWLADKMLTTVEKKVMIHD

## NC(=O)c1ccccc1OCCCN1CCN(c2cccc3c2ccn3S(=O)(=O)c2ccccc2)CC1
Histamine H1 receptor [1]
  inhibition: > 50%
[2]
  Ki: 0.18 µM
[3]
  inhibition: > 90%
[4]
  IC50: 6.2 µM
[5]
  remaining at 1 h, 0.1 µM: 57.9%
[6]
  inhibition: > 50%
Rattus norvegicus [7]
  minimal effective dose: 3 mg/kg
D(2) dopamine receptor [8]
  EC50: 0.054 µM
[9]
  Ki: 0.029 µM
[10]
  inhibition: > 90%
[11]
  inhibition: > 50%
[12]
  solubility at 200 µM: 97.3 µM (≈ 50.5 µg/mL)
[13]
  microsomal CLint at 0.1 µM: < 116 µL/min/mg
Rattus norvegicus [14]
  minimal effective dose: 1 mg/kg
[15]
  solubility at 200 µM: 7 µM (≈ 3.63 µg/mL)
Rattus norvegicus [16]
  Activity: Non-toxic
[17]
  solubility at 200 µM: 200 µM (≈ 104 µg/mL)
D(1A) dopamine receptor
  Ki: > 1 µM
[18]
  remaining at 0.5 h, 0.1 µM: 79.3%
D(3) dopamine receptor [19]
  inhibition: > 90%
D(4) dopamine receptor
  Ki: 0.0071 µM
[20]
  inhibition: < 40%
[21]
  Ki: > 1 µM
[22]
  Papp B→A at 10 µM: 0.3 ×10⁻⁶ cm/s
[23]
  Kb: 0.0018 µM
[24]
  half-life at 0.1 µM: > 1 h
D(3) dopamine receptor [25]
  EC50: > 1 µM
Histamine H1 receptor [26]
  Ki: 0.16 µM
[27]
  Ki: 0.19 µM
Rattus norvegicus [28]
  minimal effective dose: 1 mg/kg
[29]
  Ki: 0.001 µM
[30]
  Papp A→B at 10 µM: 0.7 ×10⁻⁶ cm/s
D(2) dopamine receptor [31]
  Ki: 0.0063 µM
Rattus norvegicus [32]
  minimal effective dose: 1 mg/kg
[33]
  Ki: > 1 µM
Rattus norvegicus [34]
  minimal effective dose: 1 mg/kg
[35]
  Ki: > 1 µM
[36]
  fraction unbound at 10 µM: < 0.01
[37]
  remaining at 0.75 h, 0.1 µM: 68%
Rattus norvegicus [38]
  minimal effective dose: 1 mg/kg
Rattus norvegicus [39]
  minimal effective dose: 3 mg/kg
D(3) dopamine receptor [40]
  Ki: 0.0001 µM
D(2) dopamine receptor [41]
  Ki: 0.0063 µM
[42]
  inhibition: < 40%
[43]
  inhibition: > 90%
[44]
  remaining at 0.25 h, 0.1 µM: 90.6%
[45]
  inhibition: > 50%
[46]
  Ki: 0.0067 µM
[47]
  inhibition: < 40%
[48]
  Ki: 0.0169 µM
